Consider 17 compounds from ChEMBL document CHEMBL5210307, “Affinity Biochemical Literature for EUbOPEN Chemogenomics Library wave 3” (2023).

Experiment [1] concerns the target Calcium/calmodulin-dependent protein kinase kinase 2 (Homo sapiens, UniProt Q96RR4). Nature of the experiment: Affinity Biochemical interaction (Enzymatic activity assay) EUB0000168b CAMKK2. Also noted: mode of action Negative control for SGC-CAMKK2-1 (UNC-YL-36), recommended concentration 1 uM.
Experiment [2] has as its target Bifunctional epoxide hydrolase 2 (Homo sapiens, UniProt P34913). Kind of experiment: Affinity Biochemical interaction (Human soluble epoxide hydrolase inhibition) EUB0000541a EPHX2. Also noted: mode of action Negative control for BI-1935, recommended concentration 100 nM.
A further experiment has as its target T1, Protein AF-9 (Homo sapiens, UniProt P42568).
T1 sequence (P42568 whole entry): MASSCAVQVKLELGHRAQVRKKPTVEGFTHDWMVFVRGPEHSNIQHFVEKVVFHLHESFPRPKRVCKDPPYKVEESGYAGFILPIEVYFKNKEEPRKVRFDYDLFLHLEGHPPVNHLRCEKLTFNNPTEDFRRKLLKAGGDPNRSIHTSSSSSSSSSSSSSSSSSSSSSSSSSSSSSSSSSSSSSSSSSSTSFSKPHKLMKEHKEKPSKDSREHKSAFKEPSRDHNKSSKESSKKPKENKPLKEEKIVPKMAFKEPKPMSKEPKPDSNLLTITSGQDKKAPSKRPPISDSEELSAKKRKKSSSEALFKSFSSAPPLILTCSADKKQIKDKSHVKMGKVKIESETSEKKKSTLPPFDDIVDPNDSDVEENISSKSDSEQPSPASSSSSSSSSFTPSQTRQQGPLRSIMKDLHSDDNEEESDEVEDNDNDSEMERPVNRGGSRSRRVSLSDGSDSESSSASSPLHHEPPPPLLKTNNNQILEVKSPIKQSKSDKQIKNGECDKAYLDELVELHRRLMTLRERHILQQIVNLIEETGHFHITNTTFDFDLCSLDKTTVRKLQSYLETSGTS
Kind of experiment: Affinity Biochemical interaction (HTRF-based inhibition assay) EUB0000732a MLLT3. On the set-up: mode of action Negative control for PFI-6, recommended concentration 1 uM. Background: TR-FRET usually uses a lanthanide donor and a delayed reading to cut background.

A further experiment addresses Protein ENL (Homo sapiens, UniProt Q03111). Kind of experiment: Affinity Biochemical interaction (HTRF-based inhibition assay) EUB0000732a MLLT1. Also noted: mode of action Negative control for PFI-6, recommended concentration 1 uM.
Experiment [3] has as its target Methionine aminopeptidase 2 (Homo sapiens, UniProt P50579). Nature of the experiment: Affinity Biochemical interaction (Biochemical activity assay (addition of Mn)) EUB0000303b METAP2. On the set-up: mode of action Inhibitor, recommended concentration 1 uM.
The target of a further experiment is Integrin alpha-L (Homo sapiens, UniProt P20701). Kind of experiment: Affinity Biochemical interaction (ITGAL binding assay (inhibition of LFA-1 binding to ICAM-1)) EUB0000549a ITGAL. On the set-up: mode of action Negative control for BI-1950, recommended concentration 100 nM.
Experiment [4] deals with AP2-associated protein kinase 1 (Homo sapiens, UniProt Q2M2I8). Kind of experiment: Affinity Biochemical interaction (Competition binding assay) EUB0000166b AAK1. On the set-up: mode of action Negative control for SGC-AAK1-1, recommended concentration 1 uM.
Chain of AP2-associated protein kinase 1 (Q2M2I8 whole entry, the tested form may be a part): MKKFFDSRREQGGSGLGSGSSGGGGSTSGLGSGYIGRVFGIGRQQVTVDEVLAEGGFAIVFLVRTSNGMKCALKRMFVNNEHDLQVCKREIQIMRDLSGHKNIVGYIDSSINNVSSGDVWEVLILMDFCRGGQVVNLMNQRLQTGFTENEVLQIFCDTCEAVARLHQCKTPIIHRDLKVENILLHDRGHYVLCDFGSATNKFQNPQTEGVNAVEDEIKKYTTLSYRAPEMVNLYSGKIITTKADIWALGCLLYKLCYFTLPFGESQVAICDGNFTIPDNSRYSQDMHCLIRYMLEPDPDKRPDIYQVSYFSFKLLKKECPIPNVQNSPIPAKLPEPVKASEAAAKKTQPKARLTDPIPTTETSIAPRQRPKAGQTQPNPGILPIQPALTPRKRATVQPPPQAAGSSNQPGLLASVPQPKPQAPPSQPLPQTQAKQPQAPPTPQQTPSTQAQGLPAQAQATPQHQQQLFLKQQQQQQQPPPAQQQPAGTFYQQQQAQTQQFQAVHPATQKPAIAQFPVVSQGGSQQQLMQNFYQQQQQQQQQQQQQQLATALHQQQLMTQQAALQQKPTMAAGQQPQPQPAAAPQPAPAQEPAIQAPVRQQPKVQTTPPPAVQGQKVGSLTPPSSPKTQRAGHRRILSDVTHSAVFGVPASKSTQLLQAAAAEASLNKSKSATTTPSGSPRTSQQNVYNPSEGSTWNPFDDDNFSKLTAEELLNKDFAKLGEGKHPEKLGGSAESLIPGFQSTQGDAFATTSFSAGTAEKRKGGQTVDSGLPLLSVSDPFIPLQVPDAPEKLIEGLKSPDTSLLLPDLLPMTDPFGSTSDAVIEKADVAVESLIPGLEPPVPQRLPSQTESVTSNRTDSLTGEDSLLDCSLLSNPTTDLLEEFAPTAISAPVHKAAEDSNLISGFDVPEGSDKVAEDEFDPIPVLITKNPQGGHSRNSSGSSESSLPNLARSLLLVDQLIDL
Experiment [5] has as its target BMP-2-inducible protein kinase (Homo sapiens, UniProt Q9NSY1). Nature of the experiment: Affinity Biochemical interaction (Competition binding assay) EUB0000166b BMP2K. Also noted: mode of action Negative control for SGC-AAK1-1, recommended concentration 1 uM.
Experiment [6] has as its target Oxidized purine nucleoside triphosphate hydrolase (Homo sapiens, UniProt P36639). Nature of the experiment: Affinity Biochemical interaction (PPiLight Biochemical Assay (full-length human NUDT1)) EUB0000587a NUDT1.
Experiment [7] deals with Sodium/hydrogen exchanger 1 (Homo sapiens, UniProt P19634). Kind of experiment: Affinity Biochemical interaction (pHi change assay) EUB0000545a SLC9A1. On the set-up: mode of action Negative control for BI-9627, recommended concentration 1 uM.
Experiment [8] can be described thus: Affinity Biochemical interaction (FLIPR assay) EUB0000337aCl P2RY14.
Experiment [9] addresses Nucleosome-remodeling factor subunit BPTF (Homo sapiens, UniProt Q12830). Nature of the experiment: Affinity Biochemical interaction (BioLayer Interferometry assay (BLI)) EUB0000254b BPTF. Also noted: mode of action Negative control for NVS-BPTF-1, recommended concentration 1 uM. A general note: Biolayer interferometry detects binding as a change in optical thickness at a sensor tip.

The target of experiment [10] is RAC-alpha serine/threonine-protein kinase (Homo sapiens, UniProt P31749). Nature of the experiment: Affinity Biochemical interaction (HTFR assay) EUB0000721a AKT1.
Chain of RAC-alpha serine/threonine-protein kinase (P31749 whole entry): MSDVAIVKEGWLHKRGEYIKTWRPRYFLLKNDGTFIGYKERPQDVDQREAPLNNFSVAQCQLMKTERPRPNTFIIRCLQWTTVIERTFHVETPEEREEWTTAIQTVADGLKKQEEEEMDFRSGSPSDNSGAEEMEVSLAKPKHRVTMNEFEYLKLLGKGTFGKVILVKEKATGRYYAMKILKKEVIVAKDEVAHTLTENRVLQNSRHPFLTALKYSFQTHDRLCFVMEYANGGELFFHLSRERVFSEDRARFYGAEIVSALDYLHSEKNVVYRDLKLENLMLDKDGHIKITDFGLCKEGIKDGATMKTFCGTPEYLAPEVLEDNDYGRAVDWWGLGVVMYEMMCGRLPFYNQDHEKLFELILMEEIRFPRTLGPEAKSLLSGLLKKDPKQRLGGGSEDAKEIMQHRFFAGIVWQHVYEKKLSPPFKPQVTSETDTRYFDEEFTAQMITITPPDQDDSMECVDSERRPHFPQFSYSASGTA
Another experiment concerns the target Angiopoietin-1 receptor (Homo sapiens, UniProt Q02763). Kind of experiment: Affinity Biochemical interaction (KdELECT (DiscoverX)) EUB0000703a TEK. On the set-up: mode of action Negative control for BAY-826, recommended concentration 100 nM.
Experiment [11] concerns the target Alpha-1D adrenergic receptor (Homo sapiens, UniProt P25100). Nature of the experiment: Affinity Biochemical interaction (Binding assay) EUB0000300bCl ADRA1D. On the set-up: mode of action Antagonist, recommended concentration 1 uM.
For a further experiment, the target named is Collagenase 3 (Homo sapiens, UniProt P45452). Kind of experiment: Affinity Biochemical interaction (FRET assay) EUB0000727a MMP13. Also noted: mode of action Negative control for BI-4394, recommended concentration 100 nM.
Experiment [12] addresses Transient receptor potential cation channel subfamily M member 8 (Homo sapiens, UniProt Q7Z2W7). Kind of experiment: Affinity Biochemical interaction (Enzymatic assay) EUB0000546a TRPM8. On the set-up: mode of action Negative control for PF-05105679, recommended concentration 1 uM.
Another experiment has as its target Fatty acid synthase (Homo sapiens, UniProt P49327). Kind of experiment: Affinity Biochemical interaction (Human FAS enzyme assay (measuring consumption of NADPH)) EUB0000738a FASN. Also noted: mode of action Negative control for BI 99179, recommended concentration 1 uM.
For experiment [13], the target named is Transient receptor potential cation channel subfamily A member 1 (Homo sapiens, UniProt O75762). Nature of the experiment: Affinity Biochemical interaction (FLIPR-based Ca2+ assay (activated by 30 µM AITC)) EUB0000547a TRPA1. On the set-up: mode of action Negative control for A-079, recommended concentration 1 uM.

Chain of Fatty acid synthase (P49327 whole entry): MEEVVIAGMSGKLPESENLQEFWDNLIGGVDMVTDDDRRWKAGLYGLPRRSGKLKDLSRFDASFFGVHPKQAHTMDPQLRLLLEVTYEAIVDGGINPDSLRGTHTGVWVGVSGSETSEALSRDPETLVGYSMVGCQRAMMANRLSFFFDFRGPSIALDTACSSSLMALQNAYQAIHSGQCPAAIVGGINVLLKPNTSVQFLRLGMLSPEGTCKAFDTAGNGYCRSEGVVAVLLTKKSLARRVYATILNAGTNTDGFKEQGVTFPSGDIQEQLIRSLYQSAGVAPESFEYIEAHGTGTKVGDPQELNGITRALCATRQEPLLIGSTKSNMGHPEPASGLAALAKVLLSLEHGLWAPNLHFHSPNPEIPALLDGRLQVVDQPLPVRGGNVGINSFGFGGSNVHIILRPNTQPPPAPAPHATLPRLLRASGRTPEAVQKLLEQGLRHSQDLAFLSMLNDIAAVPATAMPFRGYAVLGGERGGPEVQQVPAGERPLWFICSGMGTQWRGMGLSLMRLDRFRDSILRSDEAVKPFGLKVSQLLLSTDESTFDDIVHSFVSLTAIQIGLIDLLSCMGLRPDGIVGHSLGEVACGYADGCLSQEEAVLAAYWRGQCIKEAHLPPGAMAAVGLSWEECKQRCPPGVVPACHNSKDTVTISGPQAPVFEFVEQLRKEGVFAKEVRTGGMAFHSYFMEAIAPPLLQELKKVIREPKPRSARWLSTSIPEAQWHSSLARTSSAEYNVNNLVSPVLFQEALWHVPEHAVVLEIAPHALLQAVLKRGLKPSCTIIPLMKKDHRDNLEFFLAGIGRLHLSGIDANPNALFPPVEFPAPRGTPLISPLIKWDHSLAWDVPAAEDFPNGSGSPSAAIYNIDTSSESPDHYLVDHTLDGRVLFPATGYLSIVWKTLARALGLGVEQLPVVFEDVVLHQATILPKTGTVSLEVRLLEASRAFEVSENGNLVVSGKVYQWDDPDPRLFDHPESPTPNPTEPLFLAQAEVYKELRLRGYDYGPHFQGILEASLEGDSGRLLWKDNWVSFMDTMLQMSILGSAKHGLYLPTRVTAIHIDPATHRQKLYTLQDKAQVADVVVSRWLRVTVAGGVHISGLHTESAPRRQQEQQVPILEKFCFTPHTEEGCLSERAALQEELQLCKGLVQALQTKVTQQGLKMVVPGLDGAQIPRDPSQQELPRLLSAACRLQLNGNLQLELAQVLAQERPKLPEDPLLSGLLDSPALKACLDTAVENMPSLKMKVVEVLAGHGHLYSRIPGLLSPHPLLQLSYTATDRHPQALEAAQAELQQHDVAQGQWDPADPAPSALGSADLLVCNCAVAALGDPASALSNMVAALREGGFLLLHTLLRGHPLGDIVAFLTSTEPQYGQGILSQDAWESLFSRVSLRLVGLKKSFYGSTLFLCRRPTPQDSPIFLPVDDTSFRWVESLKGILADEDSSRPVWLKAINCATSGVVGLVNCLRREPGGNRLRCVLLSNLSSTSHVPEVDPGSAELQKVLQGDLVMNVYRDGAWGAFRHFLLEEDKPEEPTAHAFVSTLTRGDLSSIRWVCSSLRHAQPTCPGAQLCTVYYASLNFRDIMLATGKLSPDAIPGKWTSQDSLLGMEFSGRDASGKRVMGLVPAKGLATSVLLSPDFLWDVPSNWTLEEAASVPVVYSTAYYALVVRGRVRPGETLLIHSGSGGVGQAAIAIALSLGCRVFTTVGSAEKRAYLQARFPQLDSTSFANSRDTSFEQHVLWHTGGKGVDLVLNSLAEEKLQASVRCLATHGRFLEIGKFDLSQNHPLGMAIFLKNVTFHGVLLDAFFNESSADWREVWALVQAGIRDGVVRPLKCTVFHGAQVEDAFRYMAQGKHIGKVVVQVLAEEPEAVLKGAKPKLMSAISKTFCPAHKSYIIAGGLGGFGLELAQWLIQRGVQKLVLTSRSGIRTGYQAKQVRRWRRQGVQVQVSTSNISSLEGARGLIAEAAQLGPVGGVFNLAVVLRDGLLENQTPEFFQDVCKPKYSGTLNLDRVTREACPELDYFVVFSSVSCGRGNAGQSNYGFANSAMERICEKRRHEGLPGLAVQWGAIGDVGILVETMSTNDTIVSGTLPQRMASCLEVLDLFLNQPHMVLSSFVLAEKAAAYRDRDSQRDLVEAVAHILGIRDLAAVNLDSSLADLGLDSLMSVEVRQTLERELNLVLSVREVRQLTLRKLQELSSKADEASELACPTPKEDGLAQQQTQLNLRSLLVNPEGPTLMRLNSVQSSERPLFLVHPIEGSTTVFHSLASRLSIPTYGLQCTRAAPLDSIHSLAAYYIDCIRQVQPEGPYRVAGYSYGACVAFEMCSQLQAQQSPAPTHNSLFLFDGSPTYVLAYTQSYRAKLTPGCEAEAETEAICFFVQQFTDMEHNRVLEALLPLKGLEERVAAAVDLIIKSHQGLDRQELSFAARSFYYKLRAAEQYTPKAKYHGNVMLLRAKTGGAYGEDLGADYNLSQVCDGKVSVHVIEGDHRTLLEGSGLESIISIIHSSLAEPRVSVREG
Chain of Angiopoietin-1 receptor (Q02763 whole entry): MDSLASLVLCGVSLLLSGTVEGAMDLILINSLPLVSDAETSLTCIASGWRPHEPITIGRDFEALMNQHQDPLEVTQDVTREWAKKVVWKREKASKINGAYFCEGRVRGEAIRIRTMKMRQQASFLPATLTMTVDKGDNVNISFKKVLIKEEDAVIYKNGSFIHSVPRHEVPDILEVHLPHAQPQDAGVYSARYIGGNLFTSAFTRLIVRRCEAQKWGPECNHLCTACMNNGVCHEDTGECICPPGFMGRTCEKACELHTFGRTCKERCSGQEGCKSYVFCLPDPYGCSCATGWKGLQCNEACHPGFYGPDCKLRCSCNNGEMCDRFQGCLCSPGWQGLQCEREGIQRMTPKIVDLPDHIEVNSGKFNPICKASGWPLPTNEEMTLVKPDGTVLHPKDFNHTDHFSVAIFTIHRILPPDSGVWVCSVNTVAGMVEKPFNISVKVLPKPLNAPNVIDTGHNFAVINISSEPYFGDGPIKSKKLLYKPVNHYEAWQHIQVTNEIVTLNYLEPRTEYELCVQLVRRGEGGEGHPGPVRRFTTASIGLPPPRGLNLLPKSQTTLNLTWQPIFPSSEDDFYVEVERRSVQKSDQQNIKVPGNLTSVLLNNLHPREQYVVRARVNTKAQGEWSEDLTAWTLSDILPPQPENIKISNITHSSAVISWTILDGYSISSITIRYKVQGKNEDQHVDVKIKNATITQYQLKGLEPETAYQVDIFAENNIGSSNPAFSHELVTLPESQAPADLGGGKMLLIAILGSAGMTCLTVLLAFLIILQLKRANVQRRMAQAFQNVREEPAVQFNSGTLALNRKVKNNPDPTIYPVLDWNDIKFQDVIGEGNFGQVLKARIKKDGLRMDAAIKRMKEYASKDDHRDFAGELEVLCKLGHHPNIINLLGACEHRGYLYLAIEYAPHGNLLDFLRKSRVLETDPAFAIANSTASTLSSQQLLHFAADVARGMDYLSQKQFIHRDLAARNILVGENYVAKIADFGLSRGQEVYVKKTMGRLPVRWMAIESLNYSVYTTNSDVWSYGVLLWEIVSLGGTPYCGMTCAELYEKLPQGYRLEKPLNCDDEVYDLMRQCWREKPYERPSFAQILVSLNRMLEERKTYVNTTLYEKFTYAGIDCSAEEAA

On to `O=C(O)c1ccc(-c2coc3ncc(-c4ccccc4)cc23)cc1Cl`, for which the IC50 in experiment [1] is over 27 µM.

Regarding `O=C(Nc1ccc(-n2nc(-c3cccnc3)cc2C(F)(F)F)cn1)c1ccc(-c2ccccc2)c(F)c1` [BI 2049], in experiment [2], the IC50 was over 3 µM.

Take `CN(C)C(=O)c1ccc(-c2cc(C(=O)N(C)C3CCCC3)no2)cc1O`: the IC50 against Protein AF-9 and on Protein ENL was over 30 µM throughout.

Regarding `Cc1nc(N2CC[C@H](O)C2)ncc1-c1cc(C(F)(F)F)cc2[nH]ncc12`, half-maximal inhibition in experiment [3] (IC50) required 0.007 µM.

`C[C@@]1(Cc2ccc(C#N)cc2)C(=O)N(c2cc(Cl)cc(Cl)c2)c2ncc(C(=O)NC3(c4nc(C5CCC5)no4)CC3)n21` [BI 9446]: on Integrin alpha-L, the dissociation constant Kd is over 1 µM.

With `CC(C)C(=O)Nc1n[nH]c2cc(-c3cccc(NS(=O)(=O)C4CC4)c3)ccc12`, the dissociation constant Kd in [4] is 8.8 µM; in [5], over 10 µM.

`CCNC(=O)c1cc2c(N3CCOC[C@@H]3C)ccnc2n1C` had an IC50 in experiment [6] of over 20 µM.

`CC(=O)N1CCC(c2ccc(C(=O)NC3=NCCN3)cc2C(F)(F)F)CC1` [BI 0054] registered an IC50 in experiment [7] of over 10 µM.

For the compound `Cc1c(C(=O)O)cc(-c2ccc(C3CCNCC3)cc2)c2ccc(-c3ccc(C(F)(F)F)cc3)cc12`, the IC50 in experiment [8] came to 4.38 µM.

`Cc1c(Nc2ccc(S(=O)(=O)N3CCN(C)CC3)cc2F)nc2ccc(Nc3cnn(C4CC4)c3)cn2c1=O` came in with a Kd in [9] of 1.67 µM. This counts as single-digit micromolar.

Compound `C=CC(=O)Nc1ccc2[nH]c(=O)n(C3CCN(C(=O)c4ccc(-c5nc6cc[nH]c(=O)c6cc5-c5ccccc5)cc4)CC3)c2c1` yielded a concentration for half-maximal inhibition (IC50) in experiment [10] of 9.2 µM.

Regarding `Cc1cc(NC(=O)c2cccc(S(F)(F)(F)(F)F)c2)cc(-n2ccn3nc(-c4cccnc4)cc23)c1` [BAY-309], the equilibrium dissociation constant (Kd) at Angiopoietin-1 receptor is over 20 µM.

`C[C@@H](c1cccc(CN)c1)n1cc(Cl)cc(C(N)=O)c1=N`: the Ki in experiment [11] was found to be 0.0016 µM.

Regarding `Cn1nc(C(=O)NCc2ccc(C(=O)O)cc2)cc1-c1ccc2[nH]ccc2c1` [BI 4395], on Collagenase 3, the IC50 was over 26 µM.

On to `C[C@H](c1ccc(F)cc1)N(Cc1ccc(Cl)c(C(=O)O)c1)C(=O)c1cnc2ccccc2c1` [PF-05257137], for which, in experiment [12], the half-maximal inhibitory concentration (IC50) was over 10 µM.

`CCC(=O)N[C@@H]1CC[C@H](C(=O)N(C)c2ccc(-c3nc4ccccc4o3)cc2)C1` [BI 99990] showed an IC50 on Fatty acid synthase of over 3 µM.

In turn, `CCC(=N\O)/C(C)=C/c1ccc(F)c(C)c1` [A-226] gave a concentration for half-maximal inhibition (IC50) in [13] of over 100 µM.

For orientation: IC50 means the concentration at which inhibition is half-maximal. As usually defined, the Kd is the equilibrium constant for the complex coming apart. Low readings indicate a tighter complex, high ones a looser complex. A word on the Ki: it is the equilibrium dissociation constant of an inhibitor or competing ligand from its target. Read a low Ki as higher affinity.
